Results from the supplement of paper PMC6315032.

Legend:
Assay in all cases: apparent dissociation constant (pKDapp, Kinobeads competition, Cheng-Prusoff corrected) (-log10 M); higher = tighter binding
TESK2 = TESK2 (UniProt Q96S53); conditions: affinity matrix / lysate: Kinobeads, mixed HEK293/K-562/placenta lysate
PRKD3 = PRKD3 (UniProt O94806); conditions: affinity matrix / lysate: Kinobeads, mixed HEK293/K-562/placenta lysate
PIM1 = PIM1 (UniProt P11309); conditions: affinity matrix / lysate: Kinobeads, mixed HEK293/K-562/placenta lysate
AXL = AXL (UniProt P30530); conditions: affinity matrix / lysate: Kinobeads, mixed HEK293/K-562/placenta lysate
BUB1 = BUB1 (UniProt O43683); conditions: affinity matrix / lysate: Kinobeads, mixed HEK293/K-562/placenta lysate
STK33 = STK33 (UniProt Q9BYT3); conditions: affinity matrix / lysate: Kinobeads, mixed HEK293/K-562/placenta lysate
ILK = ILK (UniProt Q13418); conditions: affinity matrix / lysate: Kinobeads, mixed HEK293/K-562/placenta lysate
MERTK = MERTK (UniProt Q12866); conditions: affinity matrix / lysate: Kinobeads, mixed HEK293/K-562/placenta lysate
MET = MET (UniProt P08581); conditions: affinity matrix / lysate: Kinobeads, mixed HEK293/K-562/placenta lysate
TTK = TTK (UniProt P33981); conditions: affinity matrix / lysate: Kinobeads, mixed HEK293/K-562/placenta lysate
FGFR3 = FGFR3 (UniProt P22607); conditions: affinity matrix / lysate: Kinobeads, mixed HEK293/K-562/placenta lysate
FGR = FGR (UniProt P09769); conditions: affinity matrix / lysate: Kinobeads, mixed HEK293/K-562/placenta lysate
MARK4 = MARK4 (UniProt Q96L34); conditions: affinity matrix / lysate: Kinobeads, mixed HEK293/K-562/placenta lysate
PDPK1 = PDPK1 (UniProt O15530); conditions: affinity matrix / lysate: Kinobeads, mixed HEK293/K-562/placenta lysate
ACVR2A = ACVR2A (UniProt P27037); conditions: affinity matrix / lysate: Kinobeads, mixed HEK293/K-562/placenta lysate
MINK1 = MINK1 (UniProt Q8N4C8); conditions: affinity matrix / lysate: Kinobeads, mixed HEK293/K-562/placenta lysate
TNK2 = TNK2 (UniProt Q07912); conditions: affinity matrix / lysate: Kinobeads, mixed HEK293/K-562/placenta lysate
CSNK2A2 = CSNK2A2 (UniProt P19784)
TEK = TEK (UniProt Q02763); conditions: affinity matrix / lysate: Kinobeads, mixed HEK293/K-562/placenta lysate
PIP4K2C = PIP4K2C (UniProt Q8TBX8); conditions: affinity matrix / lysate: Kinobeads, mixed HEK293/K-562/placenta lysate
CDC2L5 = CDC2L5 (UniProt Q14004); conditions: affinity matrix / lysate: Kinobeads, mixed HEK293/K-562/placenta lysate
MAPK11 = MAPK11 (UniProt Q15759); conditions: affinity matrix / lysate: Kinobeads, mixed HEK293/K-562/placenta lysate
KDR = KDR (UniProt P35968); conditions: affinity matrix / lysate: Kinobeads, mixed HEK293/K-562/placenta lysate
GAK = GAK (UniProt O14976); conditions: affinity matrix / lysate: Kinobeads, mixed HEK293/K-562/placenta lysate
STK10 = STK10 (UniProt O94804); conditions: affinity matrix / lysate: Kinobeads, mixed HEK293/K-562/placenta lysate
BMX = BMX (UniProt P51813); conditions: affinity matrix / lysate: Kinobeads, mixed HEK293/K-562/placenta lysate
EPHA2 = EPHA2 (UniProt P29317); conditions: affinity matrix / lysate: Kinobeads, mixed HEK293/K-562/placenta lysate
BMPR1A = BMPR1A (UniProt P36894); conditions: affinity matrix / lysate: Kinobeads, mixed HEK293/K-562/placenta lysate
AURKA = AURKA (UniProt O14965); conditions: affinity matrix / lysate: Kinobeads, mixed HEK293/K-562/placenta lysate
PRKDC = PRKDC (UniProt P78527); conditions: affinity matrix / lysate: Lipid Kinobeads, mixed HeLa/Jurkat/K-562 lysate
MAPK7 = MAPK7 (UniProt Q13164); conditions: affinity matrix / lysate: Kinobeads, mixed HEK293/K-562/placenta lysate
NEK9 = NEK9 (UniProt Q8TD19); conditions: affinity matrix / lysate: Kinobeads, mixed HEK293/K-562/placenta lysate
TYRO3 = TYRO3 (UniProt Q06418); conditions: affinity matrix / lysate: Kinobeads, mixed HEK293/K-562/placenta lysate
[1] = affinity matrix / lysate: Kinobeads, mixed HEK293/K-562/placenta lysate
[2] = affinity matrix / lysate: Lipid Kinobeads, mixed HeLa/Jurkat/K-562 lysate

| Structure (SMILES) | apparent dissociation constant (-log10 M) (TESK2) | apparent dissociation constant (-log10 M) (PRKD3) | apparent dissociation constant (-log10 M) (PIM1) | apparent dissociation constant (-log10 M) (AXL) | apparent dissociation constant (-log10 M) (BUB1) | apparent dissociation constant (-log10 M) (STK33) | apparent dissociation constant (-log10 M) (ILK) | apparent dissociation constant (-log10 M) (MERTK) | apparent dissociation constant (-log10 M) (MET) | apparent dissociation constant (-log10 M) (TTK) | apparent dissociation constant (-log10 M) (FGFR3) | apparent dissociation constant (-log10 M) (FGR) | apparent dissociation constant (-log10 M) (MARK4) | apparent dissociation constant (-log10 M) (PDPK1) | apparent dissociation constant (-log10 M) (ACVR2A) | apparent dissociation constant (-log10 M) (MINK1) | apparent dissociation constant (-log10 M) (TNK2) | apparent dissociation constant (-log10 M) (CSNK2A2; [1]) | apparent dissociation constant (-log10 M) (CSNK2A2; [2]) | apparent dissociation constant (-log10 M) (TEK) | apparent dissociation constant (-log10 M) (PIP4K2C) | apparent dissociation constant (-log10 M) (CDC2L5) | apparent dissociation constant (-log10 M) (MAPK11) | apparent dissociation constant (-log10 M) (KDR) | apparent dissociation constant (-log10 M) (GAK) | apparent dissociation constant (-log10 M) (STK10) | apparent dissociation constant (-log10 M) (BMX) | apparent dissociation constant (-log10 M) (EPHA2) | apparent dissociation constant (-log10 M) (BMPR1A) | apparent dissociation constant (-log10 M) (AURKA) | apparent dissociation constant (-log10 M) (PRKDC) | apparent dissociation constant (-log10 M) (MAPK7) | apparent dissociation constant (-log10 M) (NEK9) | apparent dissociation constant (-log10 M) (TYRO3) |
| --- | --- | --- | --- | --- | --- | --- | --- | --- | --- | --- | --- | --- | --- | --- | --- | --- | --- | --- | --- | --- | --- | --- | --- | --- | --- | --- | --- | --- | --- | --- | --- | --- | --- | --- |
| COc1ccc(-c2ccc3c(N4CCOC[C@@H]4C)nc(N4CCOC[C@@H]4C)nc3n2)cc1CO [AZD8055] | < 6 | < 6 | < 6 | < 6 | < 6 | < 6 | < 6 | < 6 | < 6 | < 6 | < 6 | < 6 | < 6 | < 6 | < 6 | < 6 | < 6 | < 6 | < 6 | < 6 | < 6 | < 6 | < 6 | < 6 | < 6 | < 6 | < 6 | < 6 | < 6 | < 6 | 6.18 | < 6 | < 6 | < 6 |
| CCNC(=O)Nc1ccc(-c2nc(N3CCOC[C@@H]3C)c3c(n2)C(C)(C)S(=O)(=O)C3)cc1 [CZ415] | < 6 | < 6 | < 6 | < 6 | < 6 | < 6 | < 6 | < 6 | < 6 | < 6 | < 6 | < 6 | < 6 | < 6 | < 6 | < 6 | < 6 | < 6 | < 6 | < 6 | < 6 | < 6 | < 6 | < 6 | < 6 | < 6 | < 6 | < 6 | < 6 | < 6 | < 6 | < 6 | < 6 | < 6 |
